In data set [1] the test system is relapsed/refractory CLL, MCL, MM. To be noted: clinical; cited from earlier work.
Data set [2] has as its system RS4;11 cells (acute lymphoblastic leukemia cells). Nature of the data set: RS4;11 cell proliferation, CellTilter-Glo luminescence cell viability assay. It is filed as cell-based. The note with it: Homo sapiens, RS4-11; CTG readout after 48 hours. In a few lines:
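RS4;11 cells plated overnight were exposed for 48 h at 37 °C, 5% CO2 to an 8-point, 4-fold compound dilution series; the vehicle control contained 0.2% DMSO. Viability was read by CellTiter-Glo luminescence. Percent inhibition was referenced to no-cell and DMSO controls, and IC50 came from a four-parameter sigmoidal fit.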

On to `CC1(C)CCC(CN2CCN(c3ccc(C(=O)NS(=O)(=O)c4ccc(NCC5CCOCC5)c([N+](=O)[O-])c4)c(Oc4cnc5[nH]ccc5c4)c3)CC2)=C(c2ccc(Cl)cc2)C1` [Venetoclax, reference compound], for which, in data set [1], the toxic side effects entry was “toxic side effects such as leukopenia and thrombocytopenia, anemia, diarrhea, dizziness, fatigue, susceptibility to infection”. In addition, in data set [2], half-maximal inhibition (IC50) was put at 5.5 nM.
